Results published in ChEMBL document CHEMBL1144090, “Antinociceptive activity of niga-ichigoside F1 from Rubus imperialis” (1999).
The source made the active and inactive calls. The rule behind the calls is not given here.

Key:
[1] = tested on: Mus musculus; experiment: Antinociceptive activity in ip dosed Swiss mouse assessed as reduction of formalin-induced inflammatory pain administered 60 mins before formalin challenge measured during 15 to 30 mins; type: functional; conditions: read-out: ID50 (the source's name)
[2] = tested on: Mus musculus; experiment: Antinociceptive activity in ip dosed Swiss mouse assessed as reduction of formalin-induced neurogenic pain administered 60 mins before formalin challenge measured during 0 to 5 mins; type: functional
[3] = tested on: Mus musculus; experiment: Antinociceptive activity in Swiss mouse assessed as reduction of acetic acid-induced abdominal constructions at 1 to 10 mg/kg, ip administered 30 mins before acetic acid challenge measured after 20 mins relative to control; type: functional, Abdomen; conditions: dose mg/kg 1-10; route intraperitoneal
[4] = tested on: Mus musculus; experiment: Antinociceptive activity in ip dosed Swiss mouse assessed as reduction of acetic acid-induced abdominal constructions administered 30 mins before acetic acid challenge measured for 20 mins; type: functional; conditions: Abdomen, read-out: ID50 (the source's name)
[5] = tested on: Mus musculus; experiment: Antinociceptive activity in Swiss mouse assessed as reduction of formalin-induced inflammatory pain at 1 to 10 mg/kg, ip administered 60 mins before formalin challenge measured during 15 to 30 mins relative to control; type: functional; conditions: route intraperitoneal
[6] = tested on: Mus musculus; experiment: Antinociceptive activity in Swiss mouse assessed as reduction of formalin-induced neurogenic pain at 1 to 10 mg/kg, ip administered 60 mins before formalin challenge measured during 0 to 5 mins relative to control; type: functional; conditions: route intraperitoneal

Row | SMILES | ED50 [1] | Activity [2] | inhibition (INH) [3] | ED50 [4] | inhibition (INH) [5] | ED50 ([2]; read-out: ID50 (the source's name)) | inhibition (INH) [6]
1 | CC(=O)Nc1ccc(O)cc1 [ACETAMINOPHEN] | 120 µmol/kg | inactive | 88% | 125 µmol/kg | 85% |  | 
2 | CC(=O)Oc1ccccc1C(=O)O [ASPIRIN] | 123 µmol/kg | inactive | 83% | 133 µmol/kg | 88% |  | 
3 | C[C@@H]1CC[C@]2(C(=O)O[C@@H]3O[C@H](CO)[C@@H](O)[C@H](O)[C@H]3O)CC[C@]3(C)C(=CC[C@@H]4[C@@]5(C)C[C@@H](O)[C@H](O)[C@@](C)(CO)[C@@H]5CC[C@]43C)[C@@H]2[C@]1(C)O [NIGAICHIGOSIDE F1] | 4.1 µmol/kg |  | 67.6% | 4.6 µmol/kg | 94% | 3.9 µmol/kg | 70.4%
